In publication PMC11317148, “DNA-controlled protein fluorescence: Design of aptamer-split peptide hetero-modulator for GFP to respond to intracellular ATP levels” (Nucleic Acids Research, 2024):

Columns and labels:
[1] = tested on: tripartite split-GFP (ipGFP1-9); test: ATP-mediated in vitro reconstitution of tripartite split-GFP (ssAPC + ipGFP1-9), fluorescence time course; assay type: biochemical; conditions: 10 mM of each nucleotide, 12 h incubation
Experimental: We prepared a 50 μL mixture containing 1 μM aptamer-peptide complex and 20 μM ipGFP1-9 in ATP binding buffer (ATPBB; 20 mM Tris, 300 mM NaCl and 5 mM MgCl2, pH 7.4). These mixtures were transferred to a 384-well black microplate (Greiner Bio One, Kremsmünster, Austria) and challenged with various concentrations of ATP (2–10 mM). Fluorescence intensities were measured over a time course of 20 h at 5 min intervals using the extended mode of Cytation 7 (BioTek, Winooski, VT, USA) with excitation/emission wavelengths of 488/525 nm.
To assess the functionality of the aptamer-split peptide conjugate for GFP function modulation, we performed a time-course in vitro reconstitution assay with ssAPC and split GFP1-9 in the presence of varying concentrations of ATP (Figure 2A). Our group previously reported an in vitro reconstitution application using intein-mediated purified split GFP1-9 (ipGFP1-9) with improved solubility and expression levels to provide evidence of compatibility for application in this study ([28]). […] In the absence of ATP, we observed a modest background signal that could yield a false-positive result at earlier time-points (Figure 2A, dark gray trace), although this could readily be distinguished as a negative result relative to ATP-containing samples at later time-points. […] As aforementioned, according to Kang et al., the performance of this ATP aptamer has been proven by measuring EC50 values in terms of ATP-induced structure-switching with different lengths of antisense DNAs (11–18 nt) ([27]).
We also verified the specificity of our system towards ATP as a trigger molecule by assessing its response to other nucleotides such as UTP, GTP and CTP under identical conditions. To validate the low false-positive rate of self-assembly or non-specific binding, we compared the recovered fluorescence intensities after 12 h of incubation with 10 mM of each nucleotide.
We subsequently evaluated the performance of our system in the context of sustained responsiveness to environmental ATP changes. We conducted an experiment in which we measured fluorescence intensity over time while adding extra ATP in 2 mM increments every 120 min, up to a final concentration of 10 mM.
To verify that the fluorescence signal resulted from ATP-induced structure-switching, we performed experiments with the aptamer-modulated split GFP, in which we included an inhibitory strand that was fully complementary to the ATP aptamer sequence. We first performed an assembly reaction with the ssAPC, ipGFP1-9, and ATP for 12 h to generate a strong fluorescent signal, after which we added the inhibitory strand at varying molar ratios relative to the ssAPC ranging from 1:5 to 1:20 (Figure 2D).

[2] = tested on: A549 human lung carcinoma cells; test: Live-cell imaging of the aptamer-modulated split GFP response to intracellular ATP; assay type: cell-based; conditions: cells treated with ssAPC/ipGFP1-9 and Oligomycin A, compared to untreated controls
Experimental: A549 human lung carcinoma cells were obtained from the Korean Cell Line Bank (Seoul, South Korea). The cells were cultured at 37°C and 5% CO2 in DMEM containing 10% FBS (v/v) and penicillin/streptomycin (Thermo Fisher Scientific, Waltham, MA, USA). A549 cells were seeded at a density of 1 × 10^4 cells/well in 96-well cell culture black plates (Greiner Bio One, Kremsmünster, Austria). After 24 h, the cells were transfected with naïve GFP, ipGFP1-9, and aptamer-peptide complexes using Lipofectamine 3000 (Thermo Fisher Scientific, Waltham, MA, USA) according to the manufacturer's instructions. The cells were imaged using the Cytation 7 Cell Imaging Multi-Mode Reader (BioTek Instruments, Winooski, VT, USA) with excitation/emission wavelengths of 488/525 nm for 24 h under cultivation conditions with 5% CO2 at 37°C. Images were analyzed using ImageJ software (https://imagej.nih.gov).
For starvation experiments, A549 cells were seeded at a density of 1 × 10^6 cells/dish in 100 mm^2 cell culture dishes. After incubation for 24 h, the medium was changed to DMEM without glucose. […] Intracellular ATP concentrations were measured using an ATP assay kit (Abcam, Cambridge, MA, USA) according to the manufacturer's instructions.
Finally, we assessed the functionality of aptamer-modulated split GFP to respond to intracellular ATP levels via the reassembly within cells. […]

| Compound | fluorescence recovery of ssAPC/ipGFP1-9 assembly by nucleotide (specificity) [1] | intensity of green fluorescence of ssAPC/ipGFP1-9 after ATP depletion [2] |
| --- | --- | --- |
| O=c1ccn([C@@H]2O[C@H](COP(=O)(O)OP(=O)(O)OP(=O)(O)O)[C@@H](O)[C@H]2O)c(=O)[nH]1 [UTP] | minimal response |  |
| Nc1ncnc2c1ncn2[C@@H]1O[C@H](COP(=O)(O)OP(=O)(O)OP(=O)(O)O)[C@@H](O)[C@H]1O [ATP] | highly ATP-specific |  |
| Oligomycin A |  | conspicuous decrease |
| Nc1ccn([C@@H]2O[C@H](COP(=O)(O)OP(=O)(O)OP(=O)(O)O)[C@@H](O)[C@H]2O)c(=O)n1 [CTP] | minimal response |  |
| Nc1nc2c(ncn2[C@@H]2O[C@H](COP(=O)(O)OP(=O)(O)OP(=O)(O)O)[C@@H](O)[C@H]2O)c(=O)[nH]1 [GTP] | minimal response |  |
